Drawing on patent US8592370B2, “Combination of insulin with triazine derivatives” (Poxel S.A.S., priority 2008, dated 2013), this text covers Fasting plasma glucose and OGTT plasma glucose for two molecules.

Assay [1] relates to hyperglycemic and hypoinsulinemic Type 1 rat models (Streptozotocin). In words: Fasting plasma glucose in STZ Type 1 rat model, insulin pellets with or without EMD. Format: in vivo. How it is done:
(§1) The study was performed in hyperglycemic and hypoinsulinemic Type 1 rat models obtained by injection of high dose of Streptozotocin (STZ). Male Wistar rats (Charles River) were treated with STZ at 62.5 mg/kg IP. Rats were screened for baseline glucose levels three days after STZ injection. The animals with glucose levels below 35-40 mmol/l were excluded from this study. After selection, pellets of insulin were subcutaneously implanted (1+½ implants) at day 3. The release rate for each implant was 2 U per 24 h. In these experimental conditions each rat was infused with 3 U per 24 h of insulin for 40 days approximately (Limplant LINSHIN CANADA). 5,6-dihydro-4-dimethylamino-2-imino-6-methyl-1,3,5-triazine was orally administered at two doses, 75 and 150 mg/kg b.i.d., 10 days after induction of diabetes. Further experimental details are known to the skilled artisan, e.g. by the disclosure of WO 2003/092726, and can be easily modified as a matter of routine.

The test system is the same in assay [2]. In words: Oral glucose tolerance test (OGTT), plasma glucose after 36 days of treatment. It is filed as in vivo. As to conditions: insulin alone. On the procedure:
as §1
The determination how quickly administered glucose is cleared form the blood was conducted by means of a glucose tolerance test. The glucose was orally given; so the common test was technically an oral glucose tolerance test (OGTT), which is well-known to the skilled artisan. The laboratory animal was fasting for 18 hours before it was administered a glucose solution. Blood was drawn at intervals (cf. Table 3) for measurement of glucose (blood sugar), and additionally insulin levels were measured to detect the degree of IR or deficiency, respectively. For diabetes screening, the most important sample is the 2 hour sample, whose blood sugar value is enhanced at mammals with diminished insulin secretion or IR.

`CC1NC(=N)N=C(N(C)C)N1` (stereo not shown) [EMD, 5,6-dihydro-4-dimethylamino-2-imino-6-methyl-1,3,5-triazine]: the Fasting plasma glucose in assay [1] (EMD 75 mg/kg b.i.d. oral + insulin pellets 3 U per 24 h, day 36) is 18.86 ± 2.77 mmol/L; in assay [1] (EMD 150 mg/kg b.i.d. oral + insulin pellets 3 U per 24 h, day 36) it was 14.85 ± 2.03 mmol/L.

With “control + insulin: subcutaneously implanted insulin pellets releasing 3 U per 24 h (Limplant LINSHIN CANADA); insulin alone group”, the Fasting plasma glucose in assay [1] (insulin pellets 3 U per 24 h alone, day 0 (before treatment)) turned out to be 33.20 mmol/L; in assay [1] (insulin pellets 3 U per 24 h alone, day 8) it was 17.22 mmol/L; in assay [1] (insulin pellets 3 U per 24 h alone, day 15), 11.25 mmol/L; in assay [1] (insulin pellets 3 U per 24 h alone, day 22) it was 16.66 mmol/L; in assay [1] (insulin pellets 3 U per 24 h alone, day 36) it was 21.46 mmol/L; in assay [1] (insulin pellets 3 U per 24 h alone, day 36, listed as insulin pellets) it was 21.46 ± 3.1 mmol/L. The OGTT plasma glucose in assay [2] (0 min) amounted to 21.46 mmol/L; in assay [2] (10 min), 22.73 mmol/L; in assay [2] (20 min), 26.98 mmol/L; in assay [2] (30 min), 27.83 mmol/L; in assay [2] (45 min), 28.04 mmol/L; in assay [2] (60 min), 25.59 mmol/L. Also, the OGTT plasma glucose amounted to 20.35 mmol/L in assay [2] (90 min) and 16.91 mmol/L in assay [2] (120 min).
